In paper PMC7206119, “RIP1 inhibition blocks inflammatory diseases but not tumor growth or metastases” (Cell Death and Differentiation, 2019) one finds remaining binding data, which are given here for one molecule.

Some targets named below: EGFR(E746-A750del) (Homo sapiens, UniProt P00533, DEL746-750); AXL (Homo sapiens, UniProt P30530); EPHB4 (Homo sapiens, UniProt P54760); TNNI3K (Homo sapiens, UniProt Q59H18); BMPR1B (Homo sapiens, UniProt O00238); CAMK2B (Homo sapiens, UniProt Q13554); TYRO3 (Homo sapiens, UniProt Q06418); HASPIN (Homo sapiens, UniProt Q8TF76); IRAK1 (Homo sapiens, UniProt P51617); NEK3 (Homo sapiens, UniProt P51956); RET(V804M) (Homo sapiens, UniProt P07949, V804M); DMPK (Homo sapiens, UniProt Q09013); MARK4 (Homo sapiens, UniProt Q96L34); RIOK3 (Homo sapiens, UniProt O14730); NEK11 (Homo sapiens, UniProt Q8NG66); FLT3(R834Q) (Homo sapiens, UniProt P36888, R834Q).

Holding throughout (experiment): biochemical
What all share (design): DiscoverX kinase panel, active-site competition binding (KINOMEscan type), percent of control at one concentration
Holding throughout (conditions): competition binding, percent of control

The target in the next test is T1, YSK4 (Homo sapiens, UniProt Q56UN5).
T1 construct: gene MAP3K19
T1 sequence (Q56UN5 whole entry): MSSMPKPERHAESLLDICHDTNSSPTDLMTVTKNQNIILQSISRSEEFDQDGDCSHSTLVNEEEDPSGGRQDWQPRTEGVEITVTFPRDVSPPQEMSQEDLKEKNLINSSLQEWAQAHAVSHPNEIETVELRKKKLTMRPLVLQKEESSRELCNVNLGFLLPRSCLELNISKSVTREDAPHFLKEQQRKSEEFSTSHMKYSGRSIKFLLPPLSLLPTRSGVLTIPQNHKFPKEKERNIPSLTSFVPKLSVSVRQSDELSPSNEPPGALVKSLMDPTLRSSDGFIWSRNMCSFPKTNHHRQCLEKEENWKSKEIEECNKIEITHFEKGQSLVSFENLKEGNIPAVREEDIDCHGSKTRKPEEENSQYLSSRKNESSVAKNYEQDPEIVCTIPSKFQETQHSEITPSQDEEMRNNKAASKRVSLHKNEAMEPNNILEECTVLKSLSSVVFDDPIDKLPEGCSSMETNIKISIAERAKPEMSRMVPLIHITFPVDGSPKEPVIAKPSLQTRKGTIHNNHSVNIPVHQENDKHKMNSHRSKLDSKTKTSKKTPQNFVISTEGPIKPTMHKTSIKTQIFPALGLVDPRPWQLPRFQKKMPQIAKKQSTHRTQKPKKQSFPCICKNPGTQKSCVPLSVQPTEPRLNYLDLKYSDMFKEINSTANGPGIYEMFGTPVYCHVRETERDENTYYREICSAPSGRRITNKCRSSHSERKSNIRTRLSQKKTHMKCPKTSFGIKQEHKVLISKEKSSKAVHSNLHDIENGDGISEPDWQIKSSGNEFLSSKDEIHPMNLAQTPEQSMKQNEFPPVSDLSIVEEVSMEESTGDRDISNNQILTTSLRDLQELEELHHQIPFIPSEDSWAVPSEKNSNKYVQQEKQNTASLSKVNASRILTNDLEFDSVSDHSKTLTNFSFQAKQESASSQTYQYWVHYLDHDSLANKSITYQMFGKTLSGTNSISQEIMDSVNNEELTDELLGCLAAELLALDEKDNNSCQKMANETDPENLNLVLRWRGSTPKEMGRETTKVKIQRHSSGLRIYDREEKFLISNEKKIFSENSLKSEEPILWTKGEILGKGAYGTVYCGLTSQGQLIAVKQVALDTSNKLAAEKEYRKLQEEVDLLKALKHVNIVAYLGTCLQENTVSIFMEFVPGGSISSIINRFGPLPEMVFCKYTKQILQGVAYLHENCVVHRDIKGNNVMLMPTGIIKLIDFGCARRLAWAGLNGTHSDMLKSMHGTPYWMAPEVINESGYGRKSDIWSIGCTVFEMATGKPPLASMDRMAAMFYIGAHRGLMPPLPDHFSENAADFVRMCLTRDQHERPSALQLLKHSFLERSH

The next test has as its target T2, PCTK3 (Homo sapiens, UniProt Q07002).
T2 construct: gene CDK18

The next test has as its target T3, PIP5K2C (Homo sapiens, UniProt Q8TBX8).
T3 construct: gene PIP4K2C

Another test concerns the target T4, CAMK1B (Homo sapiens, UniProt Q6P2M8).
T4 construct: gene PNCK

A further test concerns the target T5, MLK3 (Homo sapiens, UniProt Q16584).
T5 construct: gene MAP3K11

Chain of DMPK (Q09013 whole entry): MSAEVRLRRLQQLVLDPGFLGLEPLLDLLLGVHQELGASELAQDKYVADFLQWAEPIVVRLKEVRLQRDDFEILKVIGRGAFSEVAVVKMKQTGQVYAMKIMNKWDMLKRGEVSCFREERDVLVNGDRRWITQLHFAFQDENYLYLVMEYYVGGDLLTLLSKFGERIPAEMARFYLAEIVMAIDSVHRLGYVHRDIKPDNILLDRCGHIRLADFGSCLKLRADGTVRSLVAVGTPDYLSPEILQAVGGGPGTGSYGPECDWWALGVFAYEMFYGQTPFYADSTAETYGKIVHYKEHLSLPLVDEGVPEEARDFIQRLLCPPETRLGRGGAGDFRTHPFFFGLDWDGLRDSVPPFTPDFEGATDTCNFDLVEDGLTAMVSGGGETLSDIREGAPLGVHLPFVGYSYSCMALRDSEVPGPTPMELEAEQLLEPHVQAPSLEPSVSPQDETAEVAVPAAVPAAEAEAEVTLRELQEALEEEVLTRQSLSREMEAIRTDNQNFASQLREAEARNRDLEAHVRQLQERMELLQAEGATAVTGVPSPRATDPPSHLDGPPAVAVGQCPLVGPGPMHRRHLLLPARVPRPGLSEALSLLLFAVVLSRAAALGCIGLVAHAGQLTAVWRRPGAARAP
Chain of EPHB4 (P54760 whole entry): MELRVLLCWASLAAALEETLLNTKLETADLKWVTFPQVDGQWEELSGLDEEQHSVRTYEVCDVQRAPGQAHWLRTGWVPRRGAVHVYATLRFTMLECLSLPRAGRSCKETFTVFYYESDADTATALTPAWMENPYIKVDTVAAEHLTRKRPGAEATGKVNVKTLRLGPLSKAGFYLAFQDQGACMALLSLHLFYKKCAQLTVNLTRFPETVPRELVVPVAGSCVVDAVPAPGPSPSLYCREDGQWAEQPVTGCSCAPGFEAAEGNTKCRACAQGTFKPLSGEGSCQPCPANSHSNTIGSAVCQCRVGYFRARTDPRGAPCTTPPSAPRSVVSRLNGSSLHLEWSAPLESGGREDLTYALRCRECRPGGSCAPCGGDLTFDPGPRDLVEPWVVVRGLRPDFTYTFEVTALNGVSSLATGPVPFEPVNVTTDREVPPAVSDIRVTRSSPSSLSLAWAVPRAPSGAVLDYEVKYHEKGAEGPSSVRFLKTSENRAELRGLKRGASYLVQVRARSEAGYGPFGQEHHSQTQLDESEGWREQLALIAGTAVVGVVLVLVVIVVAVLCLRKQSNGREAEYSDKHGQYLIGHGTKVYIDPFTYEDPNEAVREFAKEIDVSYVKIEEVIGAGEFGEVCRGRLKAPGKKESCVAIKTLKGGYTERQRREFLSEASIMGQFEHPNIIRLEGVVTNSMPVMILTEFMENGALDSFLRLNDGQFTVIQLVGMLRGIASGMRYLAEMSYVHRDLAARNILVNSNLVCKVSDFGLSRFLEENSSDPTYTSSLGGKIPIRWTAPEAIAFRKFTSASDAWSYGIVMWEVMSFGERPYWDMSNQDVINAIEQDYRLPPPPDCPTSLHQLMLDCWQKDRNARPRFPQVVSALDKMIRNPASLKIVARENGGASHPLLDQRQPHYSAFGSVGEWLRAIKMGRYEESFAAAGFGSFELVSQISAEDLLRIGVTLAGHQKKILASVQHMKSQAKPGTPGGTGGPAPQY
T5 sequence (Q16584 whole entry): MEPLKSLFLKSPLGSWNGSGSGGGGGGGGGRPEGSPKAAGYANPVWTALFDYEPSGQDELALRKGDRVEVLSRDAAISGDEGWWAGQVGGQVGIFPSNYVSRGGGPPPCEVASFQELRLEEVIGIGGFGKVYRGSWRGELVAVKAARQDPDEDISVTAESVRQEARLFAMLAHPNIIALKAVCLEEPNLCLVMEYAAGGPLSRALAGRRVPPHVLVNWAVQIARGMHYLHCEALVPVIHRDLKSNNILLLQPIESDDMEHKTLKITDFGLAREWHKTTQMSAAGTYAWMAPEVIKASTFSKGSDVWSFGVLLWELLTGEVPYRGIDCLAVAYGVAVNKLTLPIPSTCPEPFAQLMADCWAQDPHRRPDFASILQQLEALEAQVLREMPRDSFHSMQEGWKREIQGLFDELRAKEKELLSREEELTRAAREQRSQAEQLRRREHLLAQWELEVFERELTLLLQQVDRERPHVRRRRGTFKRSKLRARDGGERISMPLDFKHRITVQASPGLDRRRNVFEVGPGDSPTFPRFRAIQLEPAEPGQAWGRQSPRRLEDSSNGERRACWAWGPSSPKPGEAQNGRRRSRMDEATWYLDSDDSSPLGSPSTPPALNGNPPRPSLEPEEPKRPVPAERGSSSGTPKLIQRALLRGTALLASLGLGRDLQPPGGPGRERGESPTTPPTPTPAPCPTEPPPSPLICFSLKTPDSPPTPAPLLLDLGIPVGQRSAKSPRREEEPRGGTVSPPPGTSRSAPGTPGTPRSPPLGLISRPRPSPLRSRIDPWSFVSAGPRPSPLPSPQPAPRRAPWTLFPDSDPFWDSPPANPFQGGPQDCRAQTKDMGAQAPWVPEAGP
T4 sequence (Q6P2M8 whole entry): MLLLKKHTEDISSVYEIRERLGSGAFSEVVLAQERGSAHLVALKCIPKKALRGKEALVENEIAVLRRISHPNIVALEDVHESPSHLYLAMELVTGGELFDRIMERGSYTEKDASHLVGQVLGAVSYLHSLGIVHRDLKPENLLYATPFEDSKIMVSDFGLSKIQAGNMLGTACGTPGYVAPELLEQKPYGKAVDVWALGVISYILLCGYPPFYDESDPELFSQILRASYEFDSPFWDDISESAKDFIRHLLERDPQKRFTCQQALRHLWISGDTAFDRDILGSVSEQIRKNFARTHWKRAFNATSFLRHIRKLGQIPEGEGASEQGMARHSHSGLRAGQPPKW
T3 sequence (Q8TBX8 whole entry): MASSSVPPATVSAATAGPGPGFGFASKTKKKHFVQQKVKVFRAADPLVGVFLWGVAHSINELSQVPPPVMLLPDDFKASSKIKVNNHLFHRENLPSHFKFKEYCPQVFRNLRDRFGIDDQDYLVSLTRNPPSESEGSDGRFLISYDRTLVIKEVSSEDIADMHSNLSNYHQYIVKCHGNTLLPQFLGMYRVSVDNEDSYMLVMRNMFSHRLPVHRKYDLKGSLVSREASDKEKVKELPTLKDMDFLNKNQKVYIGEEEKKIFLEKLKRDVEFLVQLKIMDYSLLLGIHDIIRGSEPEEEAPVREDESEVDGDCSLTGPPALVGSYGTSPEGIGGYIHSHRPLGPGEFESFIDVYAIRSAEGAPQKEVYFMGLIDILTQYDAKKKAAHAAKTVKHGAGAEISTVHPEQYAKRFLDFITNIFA
T2 sequence (Q07002 whole entry): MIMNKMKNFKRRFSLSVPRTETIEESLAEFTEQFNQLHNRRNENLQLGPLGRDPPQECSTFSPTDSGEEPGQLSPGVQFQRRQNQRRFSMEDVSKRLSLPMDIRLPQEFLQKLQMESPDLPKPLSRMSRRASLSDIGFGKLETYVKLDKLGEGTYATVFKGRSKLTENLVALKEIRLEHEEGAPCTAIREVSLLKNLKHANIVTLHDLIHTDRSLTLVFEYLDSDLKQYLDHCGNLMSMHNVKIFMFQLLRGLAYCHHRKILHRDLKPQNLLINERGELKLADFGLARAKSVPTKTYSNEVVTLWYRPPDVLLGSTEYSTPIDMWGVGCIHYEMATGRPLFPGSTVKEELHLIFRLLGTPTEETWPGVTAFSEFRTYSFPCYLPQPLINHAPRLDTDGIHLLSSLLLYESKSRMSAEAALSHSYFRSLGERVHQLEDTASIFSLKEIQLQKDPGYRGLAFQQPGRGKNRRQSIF

Turning to `COc1cc2c(cn1)N(C)C(=O)[C@@H](NC(=O)c1nc3n(n1)[C@H](c1ccccc1)CC3)CC2` [GNE684, (S)-N-((S)-7-methoxy-1-methyl-2-oxo-2,3,4,5-tetrahydro-1H-pyrido[3,4-b]azepin-3-yl)-5-phenyl-6,7-dihydro-5H-pyrrolo[1,2-b][1,2,4]triazole-2-carboxamide], the remaining binding at 10 µM came to 94% on EGFR(E746-A750del); 96% on AXL; 100% at EPHB4; 92% on YSK4; 100% at TNNI3K; 100% at BMPR1B. Further, the remaining binding at 10 µM on CAMK2B came out at 76%; at TYRO3 it was 97%; at PCTK3, 94%; on HASPIN, 100%; at IRAK1 it was 96%; at NEK3, 94%. The remaining binding at 10 µM was 76% on PIP5K2C; 100% at RET(V804M); 100% at CAMK1B; 83% on DMPK; 60% at MARK4; 100% at MLK3. Besides, the remaining binding at 10 µM at RIOK3, on NEK11 and on FLT3(R834Q) was 100% throughout.
